Measurements taken from patent US6982276B2, “Polymorphs of an epothilone analog” (Bristol-Myers Squibb Company, priority 2000, dated 2006).

Assay: Solution calorimetry (Thermometrics Microcalorimeter) in ethanol at 25° C.
Assay type: physicochemical
Settings: for Heat of Solution: in ethanol at 25° C.
Description: Solution calorimetry was determined using a Thermometrics Microcalorimeter in ethanol at 25° C. The solubilities were likewise determined at 25° C.

Relative stability of the polymorph forms (concluded from the data, particularly the heat of solution) | Heat of Solution [kcal/mol] | SMILES
more stable | 4.92 | C/C(=C\c1csc(C)n1)[C@@H]1CC2O[C@]2(C)CCC[C@H](C)[C@H](O)[C@@H](C)C(=O)C(C)(C)[C@@H](O)CC(=O)N1 (single isomer, unassigned) [Form A, [1S-[1R*,3R*(E),7R*,10S*,11R*,12R*,16S*]]-7,11-Dihydroxy-8,8,10,12,16-pentamethyl-3-[1-methyl-2-(2-methyl-4-thiazolyl)ethenyl]-4-aza-17-oxabicyclo[14.1.0]heptadecane-5,9-dione, Form A]
– | 2.36 | C/C(=C\c1csc(C)n1)[C@@H]1CC2O[C@]2(C)CCC[C@H](C)[C@H](O)[C@@H](C)C(=O)C(C)(C)[C@@H](O)CC(=O)N1 (single isomer, unassigned) [Form B, [1S-[1R*,3R*(E),7R*,10S*,11R*,12R*,16S*]]-7,11-Dihydroxy-8,8,10,12,16-pentamethyl-3-[1-methyl-2-(2-methyl-4-thiazolyl)ethenyl]-4-aza-17-oxabicyclo[14.1.0]heptadecane-5,9-dione, Form B]
